Results reported in patent publication US11040987B2 (TenNor Therapeutics Limited, priority 2019, dated 2021).
In brackets after ≈: the same amount, converted by molar mass. Read-outs that look alike come from different tables or passages of the source.

What was measured:
Pseudomonas aeruginosa = details: including carbapenem-resistant strains; cited from earlier work
Acinetobacter baumannii = details: including carbapenem-resistant strains; cited from earlier work
AmpC_AB = AmpC_AB (Acinetobacter baumannii, UniProt Q6DRA1); experiment: β-lactamase inhibition, spectrophotometric assay of nitrocefin hydrolysis; type: biochemical
Text: (§1) Hydrolytic inactivation of the β-lactam antibiotics by β-lactamases is the most widespread drug resistant mechanism and the most challenge clinically among Gram-negative bacterial pathogens. Based on the amino acid sequences, the β-lactamases are grouped into four classes (Ambler classification), of which A, C and D are serine hydrolases and B encompasses metallo-β-lactamases. The IC50 of selected derivatives disclosed herein (identified with reference to example number) plus six reference β-lactam or β-lactamase inhibitors were determined against 7 representative β-lactamases of various classes in a standard spectrophotometric assay of nitrocefin hydrolysis. The assay is performed in 384-well plate. The seven recombinant β-lactamases AmpC_AB (from A. baumannii), AmpC_PA (from P. aeruginosa), KPC-2, NDM-1, IMP-1, VIM-1 and OXA 24/40) are expressed and purified. The reaction buffer for class A, C and D enzymes is 100 mM Na2HPO4—KH2PO4 (pH 7.1) plus 0.005% Tween-20, and for class B enzymes 10 μM ZnSO4 is added. […] The 50 μL of reaction solution composed of 2 pM of β-lactamase, 200 μM of nitrocefin and series of 3-fold dilutions of test or control compounds are added by Cybio SELMA system into 384-plate and incubated in dark at 25° C. for 2 hours. The OD490 is read in MC SpectraMax Plus384 plate reader.

IMP-1 = biological target: T1, IMP-1 (Serratia marcescens, UniProt P52699); experiment: as above; type: biochemical
T1 construct: made in house
T1 sequence (P52699 19-246, looked up, species assumed): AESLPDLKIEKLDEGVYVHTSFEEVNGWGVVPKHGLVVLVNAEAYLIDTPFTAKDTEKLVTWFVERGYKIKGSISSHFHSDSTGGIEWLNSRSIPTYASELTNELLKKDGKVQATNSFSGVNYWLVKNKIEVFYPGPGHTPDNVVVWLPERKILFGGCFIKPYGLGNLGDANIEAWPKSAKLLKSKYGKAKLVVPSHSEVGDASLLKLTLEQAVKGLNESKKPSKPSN
Text: as §1

NDM-1 = biological target: T2, NDM-1 (Klebsiella pneumoniae, UniProt C7C422); experiment: as above; type: biochemical
T2 construct: made in house
T2 sequence (C7C422 29-270, looked up, species assumed): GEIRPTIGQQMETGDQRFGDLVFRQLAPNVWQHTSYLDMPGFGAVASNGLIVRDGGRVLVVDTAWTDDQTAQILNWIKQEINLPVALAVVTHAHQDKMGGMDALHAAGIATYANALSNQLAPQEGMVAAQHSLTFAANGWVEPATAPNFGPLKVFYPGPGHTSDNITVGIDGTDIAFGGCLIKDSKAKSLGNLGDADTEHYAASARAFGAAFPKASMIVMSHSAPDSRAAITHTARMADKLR
Text: as §1

KPC-2 = biological target: T3, KPC-2 (Klebsiella pneumoniae, UniProt Q9F663); experiment: as above; type: biochemical
T3 construct: made in house
T3 sequence (Q9F663 25-293, looked up, species assumed): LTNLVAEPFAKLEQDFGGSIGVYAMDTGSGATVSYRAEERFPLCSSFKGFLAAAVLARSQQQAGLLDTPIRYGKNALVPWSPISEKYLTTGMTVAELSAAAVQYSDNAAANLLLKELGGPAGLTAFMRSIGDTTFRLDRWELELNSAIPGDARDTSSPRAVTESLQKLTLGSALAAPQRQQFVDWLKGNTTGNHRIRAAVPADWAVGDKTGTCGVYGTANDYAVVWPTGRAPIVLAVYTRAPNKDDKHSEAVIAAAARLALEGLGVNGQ
Text: as §1

VIM-1 = biological target: T4, VIM-1 (Pseudomonas aeruginosa, UniProt A0A0F7KYQ8); experiment: as above; type: biochemical
T4 construct: made in house
Text: as §1

OXA 24/40 = biological target: T5, OXA 24/40 (Acinetobacter baumannii, UniProt Q8RLA6); experiment: as above; type: biochemical
T5 construct: made in house
T5 sequence (Q8RLA6 22-275): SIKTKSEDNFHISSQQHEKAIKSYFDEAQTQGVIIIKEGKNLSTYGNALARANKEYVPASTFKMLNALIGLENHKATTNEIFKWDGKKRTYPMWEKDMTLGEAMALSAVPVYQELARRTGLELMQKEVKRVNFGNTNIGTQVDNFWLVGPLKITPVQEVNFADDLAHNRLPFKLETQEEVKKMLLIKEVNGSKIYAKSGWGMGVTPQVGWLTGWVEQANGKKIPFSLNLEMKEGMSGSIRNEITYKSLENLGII
Text: as §1

A. baumannii ATCC 19606 = experiment: MIC determination, broth microdilution, ESKAPE panel; type: cell-based; details: Acinetobacter baumannii
Outline: (§2)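 Inoculum set at […]. MICs come from broth microdilution run according to CLSI, minor modifications applied.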

[1] = test system: Escherichia coli ATCC 25922; experiment: as above; type: cell-based
Outline: as §2

S. aureus ATCC 29213 = experiment: as above; type: cell-based; details: Staphylococcus aureus
Outline: as §2

K. pneumoniae ATCC 43816 = experiment: as above; type: cell-based; details: Klebsiella pneumoniae
Outline: as §2

E. faecium ATCC 700221 = experiment: as above; type: cell-based; details: Enterococcus faecium
Outline: as §2

P. aeruginosa ATCC 27853 = experiment: as above; type: cell-based; details: Pseudomonas aeruginosa
Outline: as §2

A.b TNP 41708 = experiment: MIC against A. baumannii clinical isolates, alone and in combination with antibiotics; type: cell-based; details: for MIC: Acinetobacter baumannii, TNP41708, read-out: MIC A.b TNP 41708
Outline: as §2

A.b TNP 41704 = experiment: as above; type: cell-based; details: for MIC: Acinetobacter baumannii
A.b TNP 41709 = experiment: as above; type: cell-based; details: for MIC: Acinetobacter baumannii
AmpC_PA = biological target: T6, AmpC_PA (Pseudomonas aeruginosa, UniProt P24735); experiment: β-lactamase inhibition, spectrophotometric assay of nitrocefin hydrolysis; type: biochemical, P. aeruginosa
T6 construct: made in house
T6 sequence (P24735 27-397): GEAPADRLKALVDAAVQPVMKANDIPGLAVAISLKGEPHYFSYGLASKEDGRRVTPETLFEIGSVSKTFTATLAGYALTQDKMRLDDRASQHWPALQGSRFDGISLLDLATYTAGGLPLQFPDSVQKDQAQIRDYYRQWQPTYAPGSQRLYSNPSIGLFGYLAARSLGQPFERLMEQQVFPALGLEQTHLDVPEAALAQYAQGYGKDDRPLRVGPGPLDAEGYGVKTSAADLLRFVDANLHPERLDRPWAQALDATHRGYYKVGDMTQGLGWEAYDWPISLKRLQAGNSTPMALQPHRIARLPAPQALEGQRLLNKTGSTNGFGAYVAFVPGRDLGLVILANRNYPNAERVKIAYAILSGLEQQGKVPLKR
Text: as §1

[2] = Class C β-lactamase, 200 μM nitrocefin, 25° C., 2 hours, read-out: IC50 AmpC_AB
[3] = class B β-lactamase, 10 μM ZnSO4, 200 μM nitrocefin, 25° C., 2 hours, read-out: IC50 IMP-1
[4] = class B β-lactamase, 10 μM ZnSO4, 200 μM nitrocefin, 25° C., 2 hours, read-out: IC50 NDM-1
[5] = class A β-lactamase, 200 μM nitrocefin, 25° C., 2 hours, read-out: IC50 KPC-2
[6] = class B β-lactamase, 10 μM ZnSO4, 200 μM nitrocefin, 25° C., 2 hours, read-out: IC50 VIM-1
[7] = ATCC19606, iron-depleted cation-adjusted Mueller-Hinton broth, 2,2-dipyridyl 160 μM, 37° C., 18-20 hours, read-out: MIC A. baumannii ATCC 19606
[8] = ATCC25922, iron-depleted cation-adjusted Mueller-Hinton broth, 2,2-dipyridyl 160 μM, 37° C., 18-20 hours, read-out: MIC E. coli ATCC 25922
[9] = ATCC29213, iron-depleted cation-adjusted Mueller-Hinton broth, 2,2-dipyridyl 160 μM, 37° C., 18-20 hours, read-out: MIC S. aureus ATCC 29213
[10] = ATCC43816, iron-depleted cation-adjusted Mueller-Hinton broth, 2,2-dipyridyl 160 μM, 37° C., 18-20 hours, read-out: MIC K. pneumoniae ATCC 43816
[11] = ATCC700221, iron-depleted cation-adjusted Mueller-Hinton broth, 2,2-dipyridyl 160 μM, 37° C., 18-20 hours, read-out: MIC E. faecium ATCC 700221
[12] = ATCC27853, iron-depleted cation-adjusted Mueller-Hinton broth, 2,2-dipyridyl 160 μM, 37° C., 18-20 hours, read-out: MIC P. aeruginosa ATCC 27853
[13] = TNP41704, Compounds alone, read-out: MIC A.b TNP 41704
[14] = TNP41709, Compounds alone, read-out: MIC A.b TNP 41709

SMILES: CC(C)(O/N=C(\C(=O)N[C@@H]1C(=O)N2C(C(=O)[O-])=C(C[N+]3(CCNC(=O)c4ccc(O)c(O)c4Cl)CCCC3)CS[C@H]12)c1csc(N)n1)C(=O)O [Cefiderocol]
- antibacterial activity against Pseudomonas aeruginosa (Pseudomonas aeruginosa): potent antibacterial activity
- antibacterial activity against Acinetobacter baumannii (Acinetobacter baumannii): potent antibacterial activity

SMILES: C[C@]1(/C=N/NC(=O)CNC(=O)c2ccc(O)c(O)c2)[C@H](C(=O)O)N2C(=O)C[C@H]2S1(=O)=O [Example 64, (2S,3R,5R)-3-((E)-(2-(2-(3,4-dihydroxybenzamido)acetyl)hydrazono)methyl)-3-methyl-7-oxo-4-thia-1-azabicyclo[3.2.0]heptane-2-carboxylic acid 4,4-dioxide]
- IC50 (AmpC_AB; [2]): 0.474 µM
- IC50 (IMP-1; [3]): > 200 µM
- IC50 (NDM-1; [4]): > 200 µM
- IC50 (KPC-2; [5]): > 200 µM
- IC50 (VIM-1; [6]): > 200 µM
- IC50 (OXA 24/40): 5.77 µM
- MIC (A. baumannii ATCC 19606; [7]): 8 mg/L (≈ 17.6 µM)
- MIC [1, 8]: > 128 mg/L
- MIC (S. aureus ATCC 29213; [9]): 64 mg/L (≈ 141 µM)
- MIC (K. pneumoniae ATCC 43816; [10]): 128 mg/L (≈ 282 µM)
- MIC (E. faecium ATCC 700221; [11]): > 128 mg/L
- MIC (P. aeruginosa ATCC 27853; [12]): > 128 mg/L
- MIC (A.b TNP 41708): > 128 mg/L
- MIC A.b TNP 41708 (A.b TNP 41708; Compounds + meropenem (1:1)): 4 mg/L
- MIC A.b TNP 41708 (A.b TNP 41708; Compounds + sulbactam (1:1)): 8 mg/L
- MIC (A.b TNP 41704; [13]): > 128 mg/L
- MIC A.b TNP 41704 (A.b TNP 41704; Compounds + meropenem (1:1)): 2 mg/L
- MIC A.b TNP 41704 (A.b TNP 41704; Compounds + sulbactam (1:1)): 4 mg/L
- MIC (A.b TNP 41709; [14]): > 128 mg/L
- MIC A.b TNP 41709 (A.b TNP 41709; Compounds + meropenem (1:1)): 2 mg/L
- MIC A.b TNP 41709 (A.b TNP 41709; Compounds + sulbactam (1:1)): 4 mg/L
- IC50 (AmpC_PA): 0.641 µM

SMILES: C[C@]1(COC(=O)NNC(=O)c2ccc(O)c(O)c2Cl)[C@H](C(=O)O)N2C(=O)C[C@H]2S1(=O)=O [Example 70, (2S,3R,5R)-3-(((2-(2-chloro-3,4-dihydroxybenzoyl)hydrazinecarbonyl)oxy)methyl)-3-methyl-7-oxo-4-thia-1-azabicyclo[3.2.0]heptane-2-carboxylic acid 4,4-dioxide]
- IC50 (AmpC_AB; [2]): 7.18 µM
- IC50 (IMP-1; [3]): > 200 µM
- IC50 (NDM-1; [4]): > 200 µM
- IC50 (KPC-2; [5]): 140 µM
- activity against KPC-2 of class A (in words) (KPC-2; text summary of Table 4): weak activity
- IC50 (VIM-1; [6]): > 200 µM
- IC50 (OXA 24/40): 29.6 µM
- MIC (A. baumannii ATCC 19606; [7]): 1 mg/L (≈ 2.09 µM)
- MIC [1, 8]: > 128 mg/L
- MIC (S. aureus ATCC 29213; [9]): > 128 mg/L
- MIC (K. pneumoniae ATCC 43816; [10]): > 128 mg/L
- MIC (E. faecium ATCC 700221; [11]): > 128 mg/L
- MIC (P. aeruginosa ATCC 27853; [12]): > 128 mg/L
- MIC (A.b TNP 41708): 16 mg/L
- MIC A.b TNP 41708 (A.b TNP 41708; Compounds + meropenem (1:1)): 8 mg/L
- MIC A.b TNP 41708 (A.b TNP 41708; Compounds + sulbactam (1:1)): 8 mg/L
- MIC (A.b TNP 41704; [13]): 8 mg/L
- MIC A.b TNP 41704 (A.b TNP 41704; Compounds + meropenem (1:1)): 8 mg/L
- MIC A.b TNP 41704 (A.b TNP 41704; Compounds + sulbactam (1:1)): 4 mg/L
- MIC (A.b TNP 41709; [14]): 8 mg/L
- MIC A.b TNP 41709 (A.b TNP 41709; Compounds + meropenem (1:1)): 4 mg/L
- MIC A.b TNP 41709 (A.b TNP 41709; Compounds + sulbactam (1:1)): 4 mg/L
- IC50 (AmpC_PA): 9.14 µM

SMILES: CC1(C)[C@H](C(=O)O)N2C(=O)C[C@H]2S1(=O)=O [Sulbactam, reference compound]
- IC50 (AmpC_AB): 10.3 µM
- IC50 (IMP-1): > 200 µM
- IC50 (NDM-1): > 200 µM
- IC50 (KPC-2): 53.4 µM
- IC50 (VIM-1): > 200 µM
- IC50 (OXA 24/40): > 200 µM
- MIC (A. baumannii ATCC 19606; ATCC19606, read-out: MIC A. baumannii ATCC 19606): 0.5 mg/L (≈ 2.14 µM)
- MIC ([1]; ATCC25922, read-out: MIC E. coli ATCC 25922): 32 mg/L (≈ 137 µM)
- MIC (S. aureus ATCC 29213; ATCC29213, read-out: MIC S. aureus ATCC 29213): > 128 mg/L
- MIC (K. pneumoniae ATCC 43816; ATCC43816, read-out: MIC K. pneumoniae ATCC 43816): 64 mg/L (≈ 274 µM)
- MIC (E. faecium ATCC 700221; ATCC700221, read-out: MIC E. faecium ATCC 700221): > 128 mg/L
- MIC (P. aeruginosa ATCC 27853; ATCC27853, read-out: MIC P. aeruginosa ATCC 27853): > 128 mg/L
- MIC (A.b TNP 41708): 32 mg/L
- MIC (A.b TNP 41704; TNP41704, read-out: MIC A.b TNP 41704): 8 mg/L
- MIC (A.b TNP 41709; TNP41709, read-out: MIC A.b TNP 41709): 32 mg/L
- IC50 (AmpC_PA): 10.3 µM
